Data as given in US20050112615A1, “Genetic circuit inverting amplifier” (priority 2003, published 2005).

Test system: E.coli strain DH5αZ1 transformed with input pBT plasmid and amplifier plasmid pAMP-1
Assay: Output EGFP fluorescence of genetic circuit amplifier as a function of input IPTG concentration
Format: cell-based
Conditions: 3 hours growth, corrected for cell density and background fluorescence
Excerpt: A second bacterial plasmid, pBT (Stratagene, CA), was selected to produce the input. It releases monomer into the cellular environment, making CI available for the engineered circuit to use. It is a simple plasmid that controls transcription of cI with the PlacUV promoter. […] The pBT vector has an origin of replication derived from p15A, making it compatible with the circuit plasmid which has a different ColE1 origin of replication. Together, the plasmids constitute a cis-trans network, since the product of one plasmid (pBT) affects the outcome of gene expression on the second plasmid (pAMP-1).
The input pBT plasmid and the amplifier plasmid pAMP-1 gene were transformed into chemically competent E.coli strain DH5αZ1. This strain was selected because it produces LacI in abundance so as to permit effective use of pBT. Transformed cells were grown overnight at 37° C. in LB broth. Chloramphenicol was added at a concentration of 50 μg/mL and ampicillin was added at a concentration of 100 μg/mL.
The overnight culture was diluted 1:50 into fresh LB medium containing IPTG at the following concentrations: 0-20-200-2000 μM. These cells were allowed to grow for another 3 hours. The cells were then spun down and re-suspended in PBS. Fluorescence was then measured on a BMG Optima microplate fluorometer equipped with filters for GFP. Absorbance at 600 nm was also measured. Fluorescence was the corrected for cell density and background fluorescence. The result, presented in Table 1, indicates an output that decreases with increasing input. Observed non-linearity is likely due to low gain of chosen gain element.

How did the EGFP output fluorescence (IPTG 20 uM) turn out when `CC(C)S[C@@H]1O[C@H](CO)[C@H](O)[C@H](O)[C@H]1O` [IPTG, isopropyl-β-D-thiogalactopyranoside] was run?
The EGFP output fluorescence was 66263 arbitrary units.

What about the EGFP output fluorescence (IPTG 200 uM) of the same compound?
Its EGFP output fluorescence is 58338 arbitrary units.

What about the EGFP output fluorescence (IPTG 2000 uM) of the same compound?
The EGFP output fluorescence was 44137 arbitrary units.
